This is an account of results in ChEMBL document CHEMBL2321733, “[3a,4]-Dihydropyrazolo[1,5a]pyrimidines: Novel, Potent, and Selective Phosphatidylinositol-3-kinase β Inhibitors” (ACS Med Chem Lett, 2013).

The target of data set [1] is T1, Phosphatidylinositol 4,5-bisphosphate 3-kinase catalytic subunit beta isoform (Homo sapiens, UniProt P42338). The data set can be described thus: Inhibition of PI3Kbeta human in PTEN-null MDA-MB-468 cells assessed as reduction of AKT phosphorylation at Ser 473 in presence of serum. Format: cell-based.
T1 sequence (P42338 whole entry, canonical isoform): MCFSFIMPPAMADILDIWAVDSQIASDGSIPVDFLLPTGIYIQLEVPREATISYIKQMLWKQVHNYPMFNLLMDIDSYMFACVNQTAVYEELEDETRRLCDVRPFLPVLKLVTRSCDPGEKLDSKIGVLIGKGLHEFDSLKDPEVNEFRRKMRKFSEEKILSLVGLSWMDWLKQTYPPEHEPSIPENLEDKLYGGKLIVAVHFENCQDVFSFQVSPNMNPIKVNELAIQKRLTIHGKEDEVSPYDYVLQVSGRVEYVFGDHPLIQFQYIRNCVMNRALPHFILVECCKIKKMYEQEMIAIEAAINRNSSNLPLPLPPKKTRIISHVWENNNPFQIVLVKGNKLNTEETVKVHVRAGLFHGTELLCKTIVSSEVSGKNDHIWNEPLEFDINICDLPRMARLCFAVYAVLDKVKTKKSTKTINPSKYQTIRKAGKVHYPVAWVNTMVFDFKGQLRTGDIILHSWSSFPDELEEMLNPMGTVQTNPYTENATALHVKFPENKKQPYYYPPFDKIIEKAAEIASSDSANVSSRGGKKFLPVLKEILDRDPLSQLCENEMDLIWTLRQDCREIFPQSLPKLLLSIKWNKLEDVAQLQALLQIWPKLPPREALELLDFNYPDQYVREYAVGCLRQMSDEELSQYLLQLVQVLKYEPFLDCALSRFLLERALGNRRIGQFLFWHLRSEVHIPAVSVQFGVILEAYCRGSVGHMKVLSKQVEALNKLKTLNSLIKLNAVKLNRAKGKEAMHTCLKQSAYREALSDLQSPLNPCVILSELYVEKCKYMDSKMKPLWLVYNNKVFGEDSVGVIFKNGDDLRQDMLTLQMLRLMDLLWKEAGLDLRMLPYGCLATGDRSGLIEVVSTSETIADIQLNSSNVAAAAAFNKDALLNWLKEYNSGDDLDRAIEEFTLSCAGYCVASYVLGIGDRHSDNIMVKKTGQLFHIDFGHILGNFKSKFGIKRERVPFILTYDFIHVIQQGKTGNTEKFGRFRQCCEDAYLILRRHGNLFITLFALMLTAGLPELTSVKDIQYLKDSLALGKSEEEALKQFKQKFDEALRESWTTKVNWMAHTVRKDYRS
For data set [2], the target named is T1, Phosphatidylinositol 4,5-bisphosphate 3-kinase catalytic subunit beta isoform. Briefly: Inhibition of PI3Kbeta (unknown origin).
Data set [3] is described as follows: Plasma protein binding in human serum by equilibrium dialysis. Format: ADME, cell-free. Particulars: read-out: PPB (converted).
Data set [4] is described as follows: Plasma protein binding in mouse serum by equilibrium dialysis. Format: ADME, cell-free. Particulars: read-out: PPB (converted).
Data set [5] in a line: Plasma protein binding in rat serum by equilibrium dialysis. Format: ADME, cell-free. Particulars: read-out: PPB (converted).
Data set [6] concerns the target T1, Phosphatidylinositol 4,5-bisphosphate 3-kinase catalytic subunit beta isoform. The data set can be described thus: Inhibition of PI3Kbeta human in PTEN-null MDA-MB-468 cells assessed as reduction of AKT phosphorylation at Ser 473 in absence of serum. Type of data set: cell-based.
Data set [7] deals with T2, Phosphatidylinositol 4,5-bisphosphate 3-kinase catalytic subunit delta isoform (Homo sapiens, UniProt O00329).
T2 sequence (O00329 whole entry): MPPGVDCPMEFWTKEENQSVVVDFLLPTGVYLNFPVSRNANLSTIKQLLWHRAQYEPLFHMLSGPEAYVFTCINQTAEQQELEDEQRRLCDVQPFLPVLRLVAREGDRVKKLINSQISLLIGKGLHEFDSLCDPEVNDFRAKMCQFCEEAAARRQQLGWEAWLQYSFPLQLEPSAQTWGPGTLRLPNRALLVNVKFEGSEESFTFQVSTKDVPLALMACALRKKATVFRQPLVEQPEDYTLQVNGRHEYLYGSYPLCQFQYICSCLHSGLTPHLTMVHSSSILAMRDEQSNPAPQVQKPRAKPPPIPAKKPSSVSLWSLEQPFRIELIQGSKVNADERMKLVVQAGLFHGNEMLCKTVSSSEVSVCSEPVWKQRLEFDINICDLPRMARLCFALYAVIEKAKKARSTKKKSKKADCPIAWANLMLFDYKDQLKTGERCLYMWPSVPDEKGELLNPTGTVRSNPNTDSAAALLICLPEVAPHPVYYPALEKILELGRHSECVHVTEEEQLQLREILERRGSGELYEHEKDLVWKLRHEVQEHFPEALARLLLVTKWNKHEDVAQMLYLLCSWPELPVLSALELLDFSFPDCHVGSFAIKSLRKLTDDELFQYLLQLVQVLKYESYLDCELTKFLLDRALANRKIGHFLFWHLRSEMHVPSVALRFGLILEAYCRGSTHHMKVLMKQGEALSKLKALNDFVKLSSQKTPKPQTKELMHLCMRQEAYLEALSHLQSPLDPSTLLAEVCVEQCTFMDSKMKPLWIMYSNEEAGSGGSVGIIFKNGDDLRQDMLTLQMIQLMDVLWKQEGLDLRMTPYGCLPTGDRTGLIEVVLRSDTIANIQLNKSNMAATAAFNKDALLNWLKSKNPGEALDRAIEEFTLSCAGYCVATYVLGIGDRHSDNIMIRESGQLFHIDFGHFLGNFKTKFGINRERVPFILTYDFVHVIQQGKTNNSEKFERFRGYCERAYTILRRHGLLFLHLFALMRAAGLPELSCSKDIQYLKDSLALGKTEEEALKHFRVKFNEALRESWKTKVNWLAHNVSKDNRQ
The data set can be described thus: Inhibition of PI3Kdelta (unknown origin).

Data set [8] has as its target Phosphatidylinositol 4,5-bisphosphate 3-kinase catalytic subunit gamma isoform (Homo sapiens, UniProt P48736). Briefly: Inhibition of PI3Kgamma (unknown origin).
Data set [9] addresses Phosphatidylinositol 4,5-bisphosphate 3-kinase catalytic subunit alpha isoform (Homo sapiens, UniProt P42336). Briefly: Inhibition of PI3Kalpha (unknown origin).
In data set [10] the target is T1, Phosphatidylinositol 4,5-bisphosphate 3-kinase catalytic subunit beta isoform. The data set can be described thus: Inhibition of PI3Kbeta human in PTEN wild type HCC1954 cells assessed as reduction of AKT phosphorylation at Ser 473. Format: cell-based.

Sequence of Phosphatidylinositol 4,5-bisphosphate 3-kinase catalytic subunit alpha isoform (P42336 whole entry, canonical isoform): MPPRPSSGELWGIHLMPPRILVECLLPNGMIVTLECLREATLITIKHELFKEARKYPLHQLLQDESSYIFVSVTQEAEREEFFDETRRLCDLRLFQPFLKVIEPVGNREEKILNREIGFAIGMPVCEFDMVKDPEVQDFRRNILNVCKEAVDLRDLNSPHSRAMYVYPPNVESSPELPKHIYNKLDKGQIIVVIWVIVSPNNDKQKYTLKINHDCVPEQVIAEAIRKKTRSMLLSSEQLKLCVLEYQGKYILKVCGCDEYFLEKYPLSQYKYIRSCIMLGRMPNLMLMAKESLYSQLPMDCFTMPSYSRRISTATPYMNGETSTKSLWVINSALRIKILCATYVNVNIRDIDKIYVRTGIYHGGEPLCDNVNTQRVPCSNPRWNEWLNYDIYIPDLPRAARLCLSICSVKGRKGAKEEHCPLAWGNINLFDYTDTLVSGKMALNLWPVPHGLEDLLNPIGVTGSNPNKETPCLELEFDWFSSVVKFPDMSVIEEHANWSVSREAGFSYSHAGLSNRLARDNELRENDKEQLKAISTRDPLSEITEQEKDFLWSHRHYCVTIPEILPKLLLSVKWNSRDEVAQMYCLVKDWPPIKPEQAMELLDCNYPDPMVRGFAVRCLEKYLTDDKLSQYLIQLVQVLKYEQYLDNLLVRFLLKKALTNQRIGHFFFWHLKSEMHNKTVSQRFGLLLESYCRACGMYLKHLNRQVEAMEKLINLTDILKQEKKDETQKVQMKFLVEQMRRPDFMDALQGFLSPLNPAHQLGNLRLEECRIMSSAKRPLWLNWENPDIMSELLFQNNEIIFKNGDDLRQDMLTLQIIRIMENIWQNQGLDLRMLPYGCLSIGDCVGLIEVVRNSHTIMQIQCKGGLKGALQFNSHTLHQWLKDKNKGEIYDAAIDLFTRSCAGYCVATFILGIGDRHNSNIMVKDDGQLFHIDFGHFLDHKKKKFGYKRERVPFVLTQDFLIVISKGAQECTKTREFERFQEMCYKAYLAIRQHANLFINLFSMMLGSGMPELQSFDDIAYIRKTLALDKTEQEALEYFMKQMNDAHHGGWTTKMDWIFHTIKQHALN
Sequence of Phosphatidylinositol 4,5-bisphosphate 3-kinase catalytic subunit gamma isoform (P48736 whole entry, canonical isoform): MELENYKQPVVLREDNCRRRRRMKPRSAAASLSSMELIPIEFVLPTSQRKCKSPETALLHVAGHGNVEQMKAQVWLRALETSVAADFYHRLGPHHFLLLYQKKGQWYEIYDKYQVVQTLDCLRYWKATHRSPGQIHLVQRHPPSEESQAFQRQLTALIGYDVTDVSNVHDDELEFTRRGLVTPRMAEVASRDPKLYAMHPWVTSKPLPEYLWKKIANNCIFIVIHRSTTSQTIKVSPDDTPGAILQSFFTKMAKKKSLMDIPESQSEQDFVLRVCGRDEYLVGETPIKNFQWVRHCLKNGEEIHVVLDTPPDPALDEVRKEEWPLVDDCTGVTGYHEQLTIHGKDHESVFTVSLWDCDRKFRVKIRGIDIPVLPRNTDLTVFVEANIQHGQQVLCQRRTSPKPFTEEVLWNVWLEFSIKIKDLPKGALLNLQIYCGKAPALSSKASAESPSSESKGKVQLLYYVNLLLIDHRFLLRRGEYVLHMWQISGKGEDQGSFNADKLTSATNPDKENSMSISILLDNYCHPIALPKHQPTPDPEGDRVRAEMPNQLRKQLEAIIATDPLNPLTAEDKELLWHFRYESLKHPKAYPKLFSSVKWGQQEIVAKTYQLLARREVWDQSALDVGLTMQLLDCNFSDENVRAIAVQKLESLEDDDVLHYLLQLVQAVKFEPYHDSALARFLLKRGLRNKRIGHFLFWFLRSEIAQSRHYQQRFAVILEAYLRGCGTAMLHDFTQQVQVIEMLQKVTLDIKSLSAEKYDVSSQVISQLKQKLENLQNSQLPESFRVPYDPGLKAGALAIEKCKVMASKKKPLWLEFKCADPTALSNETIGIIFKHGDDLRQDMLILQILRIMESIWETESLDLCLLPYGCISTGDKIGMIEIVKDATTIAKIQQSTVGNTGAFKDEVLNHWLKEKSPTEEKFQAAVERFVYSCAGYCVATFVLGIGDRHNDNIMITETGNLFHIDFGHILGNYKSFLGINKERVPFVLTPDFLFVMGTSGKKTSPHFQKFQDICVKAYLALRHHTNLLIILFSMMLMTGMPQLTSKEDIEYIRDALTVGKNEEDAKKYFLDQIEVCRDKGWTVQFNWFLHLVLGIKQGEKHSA

Turning to `Cc1c(Cn2c(C)nc(=O)c3sc(N4CCOCC4)nc32)cccc1C(F)(F)F`, the EC50 is 15.8 nM in data set [1] and 6.31 nM in [6]. In addition, in data set [2], 0.631 nM corresponded to half-maximal inhibition (IC50). Also, the fraction unbound in data set [3] was 0.137; in [4], 0.118; in [5], 0.254.

With `CNc1cc(N2CCOCC2)nc2c(Cc3cccc(C(F)(F)F)c3C)c(C)nn12`, the half-maximal inhibitory concentration (IC50) is > 631 nM in [7], > 3160 nM in data set [2], > 6310 nM in [8] and > 1580 nM in [9].

As for `Cc1nn2c(O)cc(N3CCOCC3)nc2c1Cc1cccc2ccccc12`, the values for the EC50 in data set [1] and in data set [10] were 1000 nM and > 31600 nM, respectively. In addition, the IC50 in data set [7] is 25.1 nM; in [2], 1 nM; in [8], 631 nM; in data set [9], 316 nM.

Regarding `Cc1nn2c(O)cc(C3CCOCC3)nc2c1Cc1cccc(C(F)(F)F)c1C`, the EC50 in data set [1] was 10000 nM; in data set [10], > 31600 nM. Further, the IC50 in data set [7] was 126 nM; in data set [2], 3.98 nM; in [8], 2510 nM; in data set [9], > 1580 nM.

In the case of `Cc1nn2c(O)cc(N3CCOCC3=O)nc2c1Cc1cccc(C(F)(F)F)c1C`, the IC50 in [7] is 158 nM; in [2], 316 nM; in data set [8] it was 3160 nM; in [9], 251 nM.

Regarding `Cc1nn2c(O)cc(N3CCOC(C)C3)nc2c1Cc1cccc(C(F)(F)F)c1C` (configuration not stated), the IC50 in [7] was 15.8 nM; in data set [2], 2.51 nM; in data set [8], 398 nM; in [9] it was 200 nM.

In the case of `Cc1c(Cc2cnn3c(O)cc(N4CCOCC4)nc23)cccc1C(F)(F)F`, the figures for the EC50 in [1], in [10] and in data set [6] were 1000 nM, > 31600 nM and 63.1 nM, respectively. Moreover, the IC50 in data set [7] was 20 nM; in data set [2] it was 5.01 nM; in [8], 501 nM; in data set [9] it was 316 nM.

In the case of `Cc1c(Cc2cnn3c(O)cc(-c4ccncc4)nc23)cccc1C(F)(F)F`, the EC50 was 3160 nM in [1], > 31600 nM in data set [10] and 25.1 nM in data set [6]. Besides, the IC50 in [7] was 100 nM; in data set [2], 2.51 nM; in data set [8], 316 nM; in [9], 501 nM.

`CCc1nn2c(O)cc(-c3ccncc3)nc2c1Cc1cccc(Cl)c1Cl`: the EC50 in data set [1] was 20000 nM; in data set [10], > 31600 nM. For the same compound, the IC50 in [7] was 20 nM; in [2], 0.631 nM; in data set [8], 398 nM; in data set [9] it was 158 nM.

With `CCc1nn2c(O)cc(C3CCOCC3)nc2c1Cc1cccc(Cl)c1Cl`, the IC50 in data set [7] is > 398 nM; in [2], 12.6 nM; in data set [8], > 7940 nM; in data set [9], > 1580 nM.

As to `Oc1cc(N2CCOCC2)nc2c(Cc3cccc(Cl)c3Cl)c(C(F)(F)F)nn12`, the EC50 in data set [1] was 5010 nM; in [10] it was > 31600 nM. Further, the IC50 is 6.31 nM in data set [7], 0.398 nM in data set [2], 251 nM in [8] and 200 nM in data set [9].

Turning to `Oc1cc(-c2ccncc2)nc2c(Cc3cccc(Cl)c3Cl)c(C(F)(F)F)nn12`, the IC50 in [7] was 79.4 nM; in [2], 2.51 nM; in data set [8] it was 398 nM; in data set [9], 631 nM.

Regarding `Oc1cc(C2CCOCC2)nc2c(Cc3cccc(Cl)c3Cl)c(C(F)(F)F)nn12`, the IC50 in [7] was 100 nM; in [2], 6.31 nM; in [8], > 6310 nM; in data set [9] it was 2510 nM.

With `COc1nn2c(O)cc(-c3ccncc3)nc2c1Cc1cccc(Cl)c1Cl`, the values for the EC50 in data set [1], in data set [10] and in data set [6] were 12600 nM, > 31600 nM and 158 nM, respectively. Further, the IC50 in data set [7] was 25.1 nM; in data set [2] it was 1.26 nM; in data set [8], 501 nM; in data set [9] it was 158 nM.

For `Nc1nn2c(O)cc(C3CCOCC3)nc2c1Cc1cccc(Cl)c1Cl`, the values for the EC50 in data set [1] and in data set [10] were 2000 nM and > 31600 nM, respectively. In addition, the IC50 in [7] was 631 nM; in data set [2], 7.94 nM; in [8] it was > 3980 nM; in [9], 1580 nM.

Take `COc1cc(N2CCOCC2)nc2c(Cc3cccc(C(F)(F)F)c3C)cnn12`: the IC50 in data set [7] is > 631 nM; in data set [2], 1000 nM; in [8], > 5010 nM; in [9], > 5010 nM.

As to `Cc1c(Cc2cnn3c(Cl)cc(N4CCOCC4)nc23)cccc1C(F)(F)F`, the IC50 in data set [7] is > 631 nM; in data set [2] it was 316 nM; in [8], > 5010 nM; in data set [9], > 5010 nM.

Turning to `Cc1nn2ccc(C3CCOCC3)nc2c1Cc1cccc(C(F)(F)F)c1C`, the IC50 is > 501 nM in data set [7], 794 nM in [2], 2000 nM in data set [8] and > 1580 nM in data set [9].

In the case of `Cc1nn2c(C(=O)O)cc(N3CCOCC3)nc2c1Cc1cccc(C(F)(F)F)c1C`, the EC50 was 1000 nM in [1] and > 31600 nM in data set [10]. For the same compound, the IC50 in [7] is 39.8 nM; in data set [2], 5.01 nM; in data set [8], > 6310 nM; in data set [9], 1580 nM.

Turning to `Cc1nn2c(C(N)=O)cc(N3CCOCC3)nc2c1Cc1cccc(C(F)(F)F)c1C`, the EC50 in data set [1] and in data set [10] was > 31600 nM throughout. The concentration for half-maximal inhibition (IC50) in data set [7] is > 631 nM; in data set [2], 25.1 nM; in [8] it was > 6310 nM; in data set [9] it was > 6310 nM.

Consider `Cc1nn2c(C#N)cc(N3CCOCC3)nc2c1Cc1cccc(C(F)(F)F)c1C`, for which the IC50 in data set [7] is > 251 nM; in [2], > 1260 nM; in data set [8], > 3160 nM; in data set [9], > 1000 nM.

With `Cc1nn2c(N)cc(N3CCOCC3)nc2c1Cc1cccc(C(F)(F)F)c1C`, the EC50 in data set [1] was 1000 nM; in data set [10], > 31600 nM. Further, the IC50 was 158 nM in data set [7], 39.8 nM in data set [2], > 1480 nM in data set [8] and > 2000 nM in data set [9].

As to `Cc1nn2c(NO)cc(C3CCOCC3)nc2c1Cc1cccc(C(F)(F)F)c1C`, the IC50 in data set [7] is 251 nM; in data set [2] it was 39.8 nM; in data set [8] it was > 6310 nM; in [9], > 1580 nM.

On to `Cc1nn2c(NCCO)cc(C3CCOCC3)nc2c1Cc1cccc(C(F)(F)F)c1C`, for which the IC50 in data set [7] was > 631 nM; in [2], 1260 nM; in data set [8], 5010 nM; in [9], > 1580 nM.

`CC(=O)Nc1cc(N2CCOCC2)nc2c(Cc3cccc(C(F)(F)F)c3C)c(C)nn12`: the IC50 was > 631 nM in [7], > 1260 nM in data set [2], > 5010 nM in [8] and > 2000 nM in [9].

In the case of `Cc1nn2c(NC(N)=O)cc(N3CCOCC3)nc2c1Cc1cccc(C(F)(F)F)c1C`, the EC50 in data set [1] and in [10] was > 31600 nM each time. Besides, the IC50 was > 631 nM in data set [7], 20 nM in data set [2], > 6310 nM in data set [8] and > 6310 nM in [9].

For `Cc1c(Cc2c(=O)[nH]n3c(=O)cc(C4CCOCC4)[nH]c23)cccc1C(F)(F)F`, the IC50 is > 631 nM in [7], 63.1 nM in [2], > 5010 nM in data set [8] and > 2000 nM in data set [9].
